Measured values published in patent publication US20230044449A1, “NICLOSAMIDE FORMULATIONS AND METHODS OF USE AS CONTRACEPTIVE” (YourChoice Therapeutics, Inc., priority 2020, published 2023).
Where two headings read alike, the source gives them in different places.

Legend:
[1] = Saturation solubility in various solvents (PEG grades); assay type: physicochemical
Text: Saturation solubility of niclosamide was studied in the solvents, to know the highest concentration of niclosamide that can be solubilized, as depicted in table 6. [table]

fresh human semen = test: Spermicidal effect on mixing with fresh human semen (effective ranges); assay type: cell-based
Procedure: With niclosamide dissolved in DMSO, a spermicidal effect at ≥10 mM was observed. With niclosamide in formulation, a spermicidal effect at a final concentration between 5 mM and 7.5 mM or higher, was observed. The effective range for niclosamide was determined to be from 5-150 mM. Ranges of: A spermicidal effect at ≥50% (v/v/) was observed when mixing polyethylene glycol-400 (PEG-400) with fresh human semen. The effective range for PEG-400 was determined to be from 50-65%.

[2] = anhydrous form; cited from earlier work
human sperm = test: Sperm motility of fresh human semen mixed with different concentrations of niclosamide (FIG. 1); assay type: cell-based
Procedure: FIG. 1 is a graph depicting the dose dependent effect of niclosamide dissolved in DMSO, on sperm motility. Fresh human semen samples were mixed with the different concentrations of niclosamide in vitro, followed by analysis of sperm motility within 2 minutes. The x-axis depicts the different concentrations of niclosamide mixed with the semen sample. The x-axis, from Left to Right: the gray bar depicts an untreated semen sample, the blue bar depicts a vehicle control, and the eight pink bars depict the increasing concentrations of niclosamide tested. […]
Sperm motility is a functional measurement of the sperm themselves. Sperm may be sampled either directly from semen or from washed sperm samples, and assessed for motility either manually or by CASA (Computer Assisted Sperm Analysis) (Chapter 59—Male Reproductive System. Systems Toxicologic Pathology. Dianne M. Creasy, Robert E. Chapin, in Haschek and Rousseaux's Handbook of Toxicologic Pathology (Third Edition), 2013; Amann R P et al. Computer-assisted sperm analysis (CASA): capabilities and potential developments. Theriogenology. 2014 Jan. 1; 81(1):5-17). Sperm motility (expressed as %) may be evaluated in duplicate within 1 h of semen collection, by counting moving and nonmoving sperm in several microscopic fields. […] Slow-moving sperm (class B+C) can be easily and accurately counted compared with rapidly moving (class A) sperm. […]

[3] = Solubility in solvents/co-solvents; assay type: physicochemical
Procedure: Solubility of the drug was determined in selected solvent/co-solvents. About 10 g of the solvent was taken and small amount of drug was added in increments till 500 mg. […] These solutions were further diluted quantitatively to about test concentration and analyzed using chromatograph.

[4] = test system: New Zealand white rabbits; test: Vaginal irritation study, 7-day intravaginal instillation; assay type: in vivo
Procedure: Described herein is a study to assess and evaluate vaginal irritation effect of Niclosamide. A total of 9 female New Zealand white rabbits were used for the study described herein. The animals were divided into three groups of three animals in each group: Group 1 (G1) animals treated instilled/treated vehicle control; Group 2 (G2) animals instilled/treated with 2.5 mM dose of niclosamide; and Group 3 (G3) animals instilled/treated with 100 mM dose of niclosamide, as shown in Table 21.
Formulations preparation used for the study were as follows. Vehicle Preparation: 0.85% sodium chloride, 0.1% sorbic acid, 10% lactic acid and 75% water was taken in mortar and pestle and triturated, pH was adjusted to approximately 4.5 using 10 N sodium hydroxide. […] Remaining volume was adjusted with water. Total quantity was triturated again and formulation pH was confirmed with pH paper. […] Total quantity was triturated again and formulation pH was confirmed with pH paper.
Instillation of the treatment was done using prefilled FG-08 tube attached to 1 mL disposable syringe at a dose volume of 1.0 mL per animal continuously for 7 days (from day 1 to 7). Irritation potential was scored in all animals using draize scale daily before Niclosamide instillation and approximately 30 minutes after Niclosamide instillation daily from day 1 to 7 and 24 hours after last test item instillation (day 8). […]

[5] = cited from earlier work
[6] = Saturation solubility in buffers (shake flask); assay type: physicochemical; conditions: 37° C., 24 hours
Procedure: Solubility was established using 100 mL of each of the chosen buffers, and was conducted using shake flask method. […] Further, the solution was agitated at 37° C. for 24 hours and checked physically for un-dissolved mass. This saturated solution was centrifuged and injected an aliquot in to the chromatograph.

[7] = Neutral Hydrolysis (3 mL H2O at 100° C. for 8 hours)

O=C(Nc1ccc([N+](=O)[O-])cc1Cl)c1cc(Cl)ccc1O [niclosamide]
amount of API solubilised completely ([1]; 10 g of PEG-400, stirring and heating at 50° C. for 40 min): 700 mg was | amount of API solubilised completely ([1]; 10 g of PEG-1000, stirring and heating at 50° C. for 40 min): 500 mg was | amount of API solubilised completely ([1]; 10 g of PEG-2000, stirring and heating at 50° C. for 40 min): 500 mg was | maximum solubility ([1]; in PEG-1000, heating and stirring): 5 % w/w | maximum solubility ([1]; in PEG-2000, heating and stirring): 5 % w/w | concentration with spermicidal effect (fresh human semen; niclosamide dissolved in DMSO): ≥ 10 mM | effective range for niclosamide (fresh human semen; spermicidal effect): 5 to 150 mM | water solubility [2]: about 13.32 μg/mL | Minimum dose to see effect (inhibits sperm motility), concentration (human sperm; concentration in formulation): 4 mM | effective niclosamide concentration that causes 100% decrease in number of motile sperm cells (human sperm; fresh semen, 2 minutes, vs control sample): ≥ 10 mM | Solubility ([3]; polyethylene glycol (PEG 400)): 47.4 mg/g | Solubility ([3]; polyethylene glycol (PEG 1000)): 46.6 mg/g | Solubility ([3]; polyethylene glycol (PEG 2000)): 45.6 mg/g | Clinical Signs and Mortality ([4]; 2.5 and 100 mM, 1.0 mL per animal intravaginally for 7 days, female rabbits): No treatment related mortality and adverse clinical signs | Gross Pathology of vagina ([4]; rabbit, in vivo): reddened at central lower half to caudal area mildly in all animals belonging to all groups | % Degradation ([5]; Acid Hydrolysis (3 mL HCl at 100° C. for 8 hours)): No degradation | potency after degradation ([5]; Alkaline Hydrolysis (0.1N NaOH at 100° C. for 2 hours)): decreased to 97% | % Degradation ([5]; Alkaline Hydrolysis (0.1N NaOH at 100° C. for 2 hours), listed as drug substance): prone to alkaline hydrolysis | % Degradation, Impurity 1 [5, 7]: Impurity 1-0.02% | % Degradation, Impurity 2 [5, 7]: Impurity 2-0.03% | % Degradation, Impurity 3 ([5]; No stress Conditions): Impurity 3-0.04% | % Degradation ([5]; Oxidative Hydrolysis (3 mL H2O2 at 100° C. for 8 hours)): No degradation | % Degradation ([5]; Temperature Effect (100° C. for 8 hours)): No degradation | % Degradation ([5]; UV Exposure for 7 days): No degradation | Solubility ([6]; pH 1.2 (0.1N HCl)): insoluble and Nil | Solubility ([6]; pH 2.0 (0.01N HCl)): insoluble and Nil | Solubility ([6]; pH 3.0 acid phthalate buffer): insoluble and Nil | Solubility ([6]; pH 4.0 acid phthalate buffer): insoluble and Nil | Solubility ([6]; pH 4.5 acetate buffer): insoluble and Nil | Solubility ([6]; pH 5.1 acetate buffer): insoluble and Nil
